# Patent US8466154B2, “Methods and compositions related to wrapping of dehydrons” (The Board of Regents of the University of Texas System, priority 2006, dated 2013)
# Tests used:
# K562 cells = test: Alamar blue proliferation assay of liposomal WBZ—1 formulations; assay type: cell-based; conditions: calculated from previous experiments with a similar system
# Description: FIG. 12. K562 cells derived from chronic myeloid leukemia (CML) tumors and treated with WBZ—1 liposomal formulation using drug:lipid ratio 1:10. Cells were plated in a 96 well plate at a concentration of 10,000 cells per well and were treated 2 hours later. After 48 hours incubation, an Alamar blue assay was performed. Cells proliferation was expressed as the percentage of proliferating cells compared to the untreated. […] (*) This concentration is the maximum uptake that was calculated based on previous work using a similar system (Tari, 1996). The actual cellular uptake can be considerable lower, even 10^−3 times the effective concentration. The inventors can determine the exact uptake in future experiments using a radiolabeled lipid and prototype compound.
# This modification should lead to a selective inhibition of the Bcr-Abl kinase, and indeed it does. […] In order to determine the best lipid formulation to be used, the inventors tested different WBZ—1:MDPC ratios. […] Cell proliferation inhibition was determined by Alamar blue assay after 48 hours of incubation and calculated as percentage of inhibition comparing with the untreated control. All formulations were nontoxic for the cells and a dose response curve was observed. The effective concentration ranges between 0.1 and 1 μM regardless of the lipid:drug ratio used. […]
# solubility (observation) = assay type: physicochemical
# C-Kit = biological target: T1, C-Kit (Homo sapiens, UniProt P10721, K642E); test: Western blot of C-Kit phosphorylation (Tyr703, Tyr721) in ST882 cells; assay type: cell-based; conditions: 6 hours, read-out: inhibitory impact on C-Kit phosphorylation in GIST cells
# T1 construct: endogenous in cells; host or cells: ST882 (GIST882) cells
# Description: A Western blot assay on treated cancer-derived cell lines (FIGS. 8C and 8D) was performed to determine the in-cell specificity of WBZ—4. […] After allowing the cells to attach for 24 hours, the cells were treated with 1 μM of WBZ—4 or Gleevec for 6 hours. For Western blotting, 50 μg of total protein were separated on a SDS-PAGE (Bio-Rad) and blotted onto nitrocellulose membranes (Bio-Rad Laboratories, Life Science Research, Hercules, Calif.). Antibodies used: anti phospho-c-Kit polyclonal antibody, Tyr703 and Tyr721 (Zymed Laboratories Inc., South San Francisco, Calif.), anti-c-Kit monoclonal antibody (E-1): sc-17806 (Santa Cruz Biotechnology) and anti β-actin monoclonal antibody (Sigma, St. Louis, Mo.). K562 cells were plated at 5×10^5 cells/well. […] Antibodies used: anti phospho-c-Abl (Tyr 412) monoclonal antibody 247C7 (Cell Signalling Technology Inc), anti-Abl monoclonal antibody (Sigma, St. Louis, Mo.).
# JNK1/2 = test: Western blot of phosphorylated kinases in neonatal rat ventricular myocytes (NRVM); assay type: cell-based; conditions: 1-50 μM, 24 h, compared to untreated cells
# ERK1/2 = test: as above; assay type: cell-based; conditions: 1-50 μM, 24 h, compared to untreated cultures
# Description: This protective role of WBZ—4 has also been validated in vivo. Animals used in these studies were handled in accordance with National Institutes of Health “Guide for the Care and Use of Laboratory Animals” [Department of Health and Human Services Publication No. (NIH) 85-23, Revised 1985]. […] NRVM were isolated from the hearts of 2 day-old Sprague-Dawley rat pups via collagenase digestion as previously described (Samarel and Engelmann, 1991). Dissociated cells were pre-plated for 1 hour in serum-free PC-1 medium to selectively remove nonmuscle cells. Myocytes were then plated in PC-1 medium at a density of 1600 cells per mm^2 onto collagen-coated, plastic 35-mm dishes, and left undisturbed in a 5% CO2 incubator for 24 h. Unattached cells were removed by aspiration, and the attached cells were maintained in a solution of DMEM/Medium 199 (4:1) containing antibiotic/antimycotic solution for 24 h. […] NRVM were homogenized in lysis buffer (Schlaepfer and Hunter, 1996). Equal amounts of extracted proteins were separated on 10% SDS-polyacrylamide gels with 5% stacking gels. […] Primary antibody binding was detected with horseradish-peroxidase conjugated goat anti-mouse or goat anti-rabbit secondary antibody, and visualized by enhanced chemiluminescence.
# [1] = test system: brain natriuretic peptide (BNP); test: RT-PCR of BNP mRNA in left ventricle of treated mice; conditions: GIST model mice after therapy
# Chk1 = biological target: T2, Chk1 (Homo sapiens, UniProt O14757); test: kinetic spectrophotometric assay of phosphorylation rate; assay type: biochemical
# T2 sequence (O14757 1-476): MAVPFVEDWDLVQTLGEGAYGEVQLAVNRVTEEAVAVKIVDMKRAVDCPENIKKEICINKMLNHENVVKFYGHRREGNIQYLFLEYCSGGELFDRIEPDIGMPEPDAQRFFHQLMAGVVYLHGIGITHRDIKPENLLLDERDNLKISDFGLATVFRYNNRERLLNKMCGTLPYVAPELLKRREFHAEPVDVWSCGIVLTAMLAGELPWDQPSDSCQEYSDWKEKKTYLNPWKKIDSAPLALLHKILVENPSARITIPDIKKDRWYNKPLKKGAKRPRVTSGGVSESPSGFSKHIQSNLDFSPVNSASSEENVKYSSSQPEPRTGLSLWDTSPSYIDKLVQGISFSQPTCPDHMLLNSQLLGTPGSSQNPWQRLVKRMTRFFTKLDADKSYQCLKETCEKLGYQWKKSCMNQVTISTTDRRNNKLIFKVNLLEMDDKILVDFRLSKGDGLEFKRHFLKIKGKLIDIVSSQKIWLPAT
# Text: (§1) To assess the specificity and affinity for Src, the staurosporine derivative is compared with the parental compound. […] Kinetic spectrophotometric assays where performed as indicated above. These assays were geared at measuring the phosphorylation rate of peptide substrates in the presence of the kinase inhibitor at different concentrations.
# PDK1 = biological target: T3, PDK1 (Homo sapiens, UniProt O15530); test: as above; assay type: biochemical
# T3 sequence (O15530 1-556): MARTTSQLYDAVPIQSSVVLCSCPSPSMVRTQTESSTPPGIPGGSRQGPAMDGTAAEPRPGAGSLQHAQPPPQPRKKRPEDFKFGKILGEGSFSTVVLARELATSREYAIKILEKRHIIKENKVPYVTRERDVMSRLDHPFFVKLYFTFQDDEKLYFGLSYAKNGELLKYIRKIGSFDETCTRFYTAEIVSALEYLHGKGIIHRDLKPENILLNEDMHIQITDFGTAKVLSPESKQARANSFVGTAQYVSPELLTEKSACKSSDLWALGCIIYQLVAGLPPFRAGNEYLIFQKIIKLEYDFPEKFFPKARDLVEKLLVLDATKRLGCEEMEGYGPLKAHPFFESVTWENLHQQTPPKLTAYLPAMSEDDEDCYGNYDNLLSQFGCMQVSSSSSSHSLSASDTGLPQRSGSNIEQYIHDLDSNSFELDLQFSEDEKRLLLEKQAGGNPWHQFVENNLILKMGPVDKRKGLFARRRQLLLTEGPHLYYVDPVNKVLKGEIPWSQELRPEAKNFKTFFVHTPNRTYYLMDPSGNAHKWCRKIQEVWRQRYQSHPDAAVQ
# Text: as §1
# Src kinase = test: as above; assay type: biochemical
# Text: as §1
smiles,measurement,setting,value
"Cc1ccc(NC(=O)c2ccc(CN3CCN(C)CC3)cc2)cc1Nc1nccc(-c2cnccc2C)n1 [WBZ—1, N-{5-[4-(4-methylpiperazinemethyl)-benzoylamido]-2-methylphenyl}-4-[3-(4-methyl)-pyridyl]-2-pyrimidine amine]",uptake of WBZ—1 after 48 hours,K562 cells,72 pmol
same,solubility,solubility (observation),insolubility
"Cc1ccc(NC(=O)c2ccc(CN3CCN(C)CC3)cc2)cc1Nc1nccc(-c2cccnc2)n1 [imatinib, reference compound]",inhibition at 1 µM,C-Kit,~85%
same,JNK1/2 activation in cardiomyocytes,JNK1/2,activates JNKs
same,phosphorylation state of ERK1/2 in cardiomyocytes,ERK1/2,increased
same,"BNP mRNA levels in the left ventricle, higher than untreated",[1],about 58%
CN[C@@H]1C[C@H]2O[C@@](C)([C@@H]1OC)n1c3ccccc3c3c4c(c5c6ccccc6n2c5c31)C(=O)N(C)C4 [methylated staurosporine derivative],inhibitory impact against Chk1,Chk1,very low inhibitory impact
same,inhibitory impact against PDK1,PDK1,very low inhibitory impact
same,inhibition of Src compared with staurosporine levels,Src kinase,improved
